In patent US20240390298A1, “CYCLOHEXYL BETA-HYDROXY ALKYL AMINES AND MEDICAL USES THEREOF” (ATROGI AB, priority 2021, published 2024):

Assays:
[1] = system: L6-myotubes; assay: Measurement of intracellular cAMP levels in differentiated L6 cells (alpha screen cAMP kit), compared to isoproterenol; type: cell-based; conditions: Rattus norvegicus, L6, 0.25 h, agonist 1×10^−5 M, 15 min, read-out: Biological example 2: intracellular cAMP levels, activity compared to that of isoproterenol
In short: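 L6 myoblasts were differentiated into myotubes over 7 days in 2% FBS, then serum-starved overnight. Agonist at 1×10^−5 M final was applied for 15 min in HBSS with 1% BSA, 5 mM HEPES and 1 mM IBMX, pH 7.4. After ethanol extraction and lysis, cAMP was quantified by AlphaScreen, with activity expressed relative to isoproterenol.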

[2] = system: L6-myotubes; assay: Glucose uptake in differentiated L6-myotubes (3H-2-deoxyglucose), compared to isoproterenol; type: cell-based; conditions: agonist 1×10^−5 M, 50 nM 3H-2-deoxyglucose; for Emax at 10 µM: read-out: Biological example 1: glucose uptake, activity compared to that of isoproterenol
In short: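 Serum-starved differentiated L6 myotubes stimulated with agonist at 1×10^−5 M for 1 h 40 min, re-dosed in glucose-free medium for 20 min, then given 50 nM ^3H-2-deoxyglucose for 10 min. Uptake read by β-counting of NaOH lysates; activity expressed relative to isoproterenol.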

`CC(=O)N[C@H]1CC[C@H](CC(C)(C)NC[C@H](O)c2cncc(F)c2)CC1` [Example 87, N-((1R,4r)-4-(2-(((R)-2-(5-Fluoropyridin-3-yl)-2-hydroxyethyl)amino)-2-methylpropyl)cyclohexyl)acetamide] was tested, and the Emax at 10 µM [1] was under 25% and the “Biological example 1: glucose uptake, activity compared to that of isoproterenol” value [2] was “+ + +”.
`CC(C)(C[C@H]1CC[C@H](NS(C)(=O)=O)CC1)NC[C@H](O)c1cncc(F)c1` [Example 89, N-((1R,4r)-4-(2-(((R)-2-(5-Fluoropyridin-3-yl)-2-hydroxyethyl)amino)-2-methylpropyl)cyclohexyl)methanesulfonamide] was tested, and the Emax at 10 µM [1] was under 25% and the “Biological example 1: glucose uptake, activity compared to that of isoproterenol” value [2] was “+ + +”.
Molecule `CC(C)(CC[C@H]1CC[C@H](N)CC1)NC[C@H](O)c1cncc(F)c1` [Example 92, (R)-2-((4-((1r,4S)-4-Aminocyclohexyl)-2-methylbutan-2-yl)amino)-1-(5-fluoropyridin-3-yl)ethan-1-ol] has an Emax at 10 µM [1] of under 25% and an Emax at 10 µM [2] of 25 to 50%.
For `CC(=O)N[C@H]1CC[C@H](CCC(C)(C)NC[C@H](O)c2cncc(F)c2)CC1` [Example 93, N-((1S,4r)-4-(3-(((R)-2-(5-Fluoropyridin-3-yl)-2-hydroxyethyl)amino)-3-methylbutyl)cyclohexyl)acetamide], the Emax at 10 µM [1] was under 25% and the “Biological example 1: glucose uptake, activity compared to that of isoproterenol” value [2] was “+ + +”.
For `CC(C)(CC[C@H]1CC[C@H](NS(C)(=O)=O)CC1)NC[C@H](O)c1cncc(F)c1` [Example 94, N-((1S,4r)-4-(3-(((R)-2-(5-Fluoropyridin-3-yl)-2-hydroxyethyl)amino)-3-methylbutyl)cyclohexyl)methanesulfonamide], the Emax at 10 µM [1] was under 25% and the “Biological example 1: glucose uptake, activity compared to that of isoproterenol” value [2] was “+ +”.
`CC(C)(NC[C@H](O)c1cncc(F)c1)[C@H]1CC[C@@H](C(=O)O)CC1` [Example 97, (1S,4s)-4-(2-(((R)-2-(5-Fluoropyridin-3-yl)-2-hydroxyethyl)amino)propan-2-yl)cyclohexane-1-carboxylic acid] showed an Emax at 10 µM [1] of 25 to 50% and an Emax at 10 µM [2] of 25 to 50%.
With `CC(C)(NC[C@H](O)c1cccc(F)c1)[C@H]1CC[C@@H](C(=O)O)CC1` [Example 98, (1S,4s)-4-(2-(((R)-2-(3-Fluorophenyl)-2-hydroxyethyl)amino)propan-2-yl)-cyclohexane-1-carboxylic acid] the Emax at 10 µM [1] was under 25% and the Emax at 10 µM [2] was 25 to 50%.
For `COC(=O)[C@H]1CC[C@H](C(C)(C)NC[C@H](O)c2cccc(F)c2)CC1` [Example 99, Methyl (1R,4r)-4-(2-(((R)-2-(3-fluorophenyl)-2-hydroxyethyl)amino)propan-2-yl)cyclohexane-1-carboxylate], the Emax at 10 µM [1] was under 25% and the “Biological example 1: glucose uptake, activity compared to that of isoproterenol” value [2] was “+ + +”.
In the case of `COC(=O)[C@H]1CC[C@H](C(C)(C)NC[C@H](O)c2cncc(F)c2)CC1` [Example 100, Methyl (1R,4r)-4-(2-(((R)-2-(5-fluoropyridin-3-yl)-2-hydroxyethyl)amino)-propan-2-yl)cyclohexane-1-carboxylate], the Emax at 10 µM [1] is reported as under 25% and the “Biological example 1: glucose uptake, activity compared to that of isoproterenol” value [2] is reported as “+ + +”.
`CC(C)(NC[C@H](O)c1cccc(F)c1)[C@H]1CC[C@H](C(=O)O)CC1` [Example 101, (1R,4r)-4-(2-(((R)-2-(3-Fluorophenyl)-2-hydroxyethyl)amino)propan-2-yl)cyclohexane-1-carboxylic acid] gave an Emax at 10 µM [1] of under 25% and an Emax at 10 µM [2] of under 25%.
`COC(=O)[C@H]1CC[C@@H](CC(C)(C)NC[C@H](O)c2cccc(F)c2)CC1` [Example 103, Methyl (1S,4s)-4-(2-(((R)-2-(3-fluorophenyl)-2-hydroxyethyl)amino)-2-methylpropyl)cyclohexane-1-carboxylate] was tested, and the Emax at 10 µM [1] was under 25% and the “Biological example 1: glucose uptake, activity compared to that of isoproterenol” value [2] was “+ + +”.
For `COC(=O)[C@H]1CC[C@@H](CC(C)(C)NC[C@H](O)c2cncc(F)c2)CC1` [Example 104, Methyl (1S,4s)-4-(2-(((R)-2-(5-fluoropyridin-3-yl)-2-hydroxyethyl)amino)-2-methylpropyl)cyclohexane-1-carboxylate], the Emax at 10 µM [1] was under 25% and the “Biological example 1: glucose uptake, activity compared to that of isoproterenol” value [2] was “+ + +”.
`CC(C)(C[C@H]1CC[C@@H](C(=O)O)CC1)NC[C@H](O)c1cccc(F)c1` [Example 105, (1S,4s)-4-(2-(((R)-2-(3-Fluorophenyl)-2-hydroxyethyl)amino)-2-methylpropyl)cyclohexane-1-carboxylic acid] showed an Emax at 10 µM [1] of under 25% and an Emax at 10 µM [2] of 25 to 50%.
Molecule `CC(C)(C[C@H]1CC[C@@H](C(=O)O)CC1)NC[C@H](O)c1cncc(F)c1` [Example 106, (1S,4s)-4-(2-(((R)-2-(5-Fluoropyridin-3-yl)-2-hydroxyethyl)amino)-2-methylpropyl)cyclohexane-1-carboxylic acid] has an Emax at 10 µM [1] of under 25% and an Emax at 10 µM [2] of 25 to 50%.
For `COC(=O)[C@H]1CC[C@H](CC(C)(C)NC[C@H](O)c2cncc(F)c2)CC1` [Example 108, Methyl (1R,4r)-4-(2-(((R)-2-(5-fluoropyridin-3-yl)-2-hydroxyethyl)amino)-2-methylpropyl)cyclohexane-1-carboxylate], the Emax at 10 µM [1] was under 25% and the “Biological example 1: glucose uptake, activity compared to that of isoproterenol” value [2] was “+ +”.
With `CC(C)(C[C@H]1CC[C@H](C(=O)O)CC1)NC[C@H](O)c1cccc(F)c1` [Example 109, (1R,4r)-4-(2-(((R)-2-(3-fluorophenyl)-2-hydroxyethyl)amino)-2-methyl-propyl)cyclohexane-1-carboxylic acid acetate] the Emax at 10 µM [1] was under 25% and the “Biological example 1: glucose uptake, activity compared to that of isoproterenol” value [2] was “+ +”.
Work on `CC(C)(C[C@H]1CC[C@H](C(=O)O)CC1)NC[C@H](O)c1cncc(F)c1` [Example 110, (1R,4r)-4-(2-(((R)-2-(5-fluoropyridin-3-yl)-2-hydroxyethyl)amino)-2-methylpropyl)cyclohexane-1-carboxylic acid acetate] yielded an Emax at 10 µM [1] of under 25% and an Emax at 10 µM [2] of under 25%.
In the case of `COC(=O)[C@H]1CC[C@@H](CCC(C)(C)NC[C@H](O)c2cccc(F)c2)CC1` [Example 111, Methyl (1S,4s)-4-(3-(((R)-2-(3-fluorophenyl)-2-hydroxyethyl)amino)-3-methylbutyl)cyclohexane-1-carboxylate], the Emax at 10 µM [1] is reported as 25 to 50% and the “Biological example 1: glucose uptake, activity compared to that of isoproterenol” value [2] is reported as “+ + +”.
`CC(C)(CC[C@H]1CC[C@@H](C(=O)O)CC1)NC[C@H](O)c1cccc(F)c1` [Example 113, (1S,4s)-4-(3-(((R)-2-(3-Fluorophenyl)-2-hydroxyethyl)amino)-3-methyl-butyl)cyclohexane-1-carboxylic acid] was tested, and the Emax at 10 µM [1] was under 25% and the Emax at 10 µM [2] was 25 to 50%.
`CC(C)(CC[C@H]1CC[C@@H](C(=O)O)CC1)NC[C@H](O)c1cncc(F)c1` [Example 114, (1S,4s)-4-(3-(((R)-2-(5-Fluoropyridin-3-yl)-2-hydroxyethyl)amino)-3-methylbutyl)cyclohexane-1-carboxylic acid] was tested, and the Emax at 10 µM [1] was under 25% and the “Biological example 1: glucose uptake, activity compared to that of isoproterenol” value [2] was “+ + +”.
In the case of `COC(=O)[C@H]1CC[C@H](CCC(C)(C)NC[C@H](O)c2cccc(F)c2)CC1` [Example 115, Methyl (1R,4r)-4-(3-(((R)-2-(3-fluorophenyl)-2-hydroxyethyl)amino)-3-methylbutyl)cyclohexane-1-carboxylate], the Emax at 10 µM [1] is reported as under 25% and the “Biological example 1: glucose uptake, activity compared to that of isoproterenol” value [2] is reported as “+ + +”.
`CC(C)(CC[C@H]1CC[C@H](C(=O)O)CC1)NC[C@H](O)c1cccc(F)c1` [Example 117, (1R,4r)-4-(3-(((R)-2-(3-Fluorophenyl)-2-hydroxyethyl)amino)-3-methyl-butyl)cyclohexane-1-carboxylic acid] gave an Emax at 10 µM [1] of under 25% and an Emax at 10 µM [2] of under 25%.
In the case of `CC(C)(CC[C@H]1CC[C@H](C(=O)O)CC1)NC[C@H](O)c1cncc(F)c1` [Example 118, (1R,4r)-4-(3-(((R)-2-(5-Fluoropyridin-3-yl)-2-hydroxyethyl)amino)-3-methylbutyl)cyclohexane-1-carboxylic acid], the Emax at 10 µM [1] is reported as under 25% and the Emax at 10 µM [2] is reported as 25 to 50%.
`CCOC(=O)CO[C@H]1CC[C@H](C(C)(C)NC[C@H](O)c2cccc(F)c2)CC1` [Example 123, Ethyl 2-(((1R,4r)-4-(2-(((R)-2-(3-fluorophenyl)-2-hydroxyethyl)amino)-propan-2-yl)cyclohexyl)oxy)acetate] was tested, and the Emax at 10 µM [1] was under 25% and the “Biological example 1: glucose uptake, activity compared to that of isoproterenol” value [2] was “+ + +”.
In the case of `CCOC(=O)CO[C@H]1CC[C@@H](C(C)(C)NC[C@H](O)c2cccc(F)c2)CC1` [Example 124, Ethyl 2-(((1S,4s)-4-(2-(((R)-2-(3-fluorophenyl)-2-hydroxyethyl)amino-)propan-2-yl)cyclohexyl)oxy)acetate], the Emax at 10 µM [1] is reported as under 25% and the “Biological example 1: glucose uptake, activity compared to that of isoproterenol” value [2] is reported as “+ +”.
In the case of `CCOC(=O)CO[C@H]1CC[C@H](C(C)(C)NC[C@H](O)c2cncc(F)c2)CC1` [Example 125, Ethyl 2-(((1R,4r)-4-(2-(((R)-2-(5-fluoropyridin-3-yl)-2-hydroxyethyl)-amino)propan-2-yl)cyclohexyl)oxy)acetate], the Emax at 10 µM [1] is reported as under 25% and the “Biological example 1: glucose uptake, activity compared to that of isoproterenol” value [2] is reported as “+ + +”.
For `CC(C)(NC[C@H](O)c1cccc(F)c1)[C@H]1CC[C@H](OCC(=O)O)CC1` [Example 126, 2-(((1R,4r)-4-(2-(((R)-2-(3-Fluorophenyl)-2-hydroxyethyl)amino)propan-2-yl)cyclohexyl)oxy)acetic acid], the Emax at 10 µM [1] was under 25% and the “Biological example 1: glucose uptake, activity compared to that of isoproterenol” value [2] was “+ +”.
In the case of `CC(C)(NC[C@H](O)c1cncc(F)c1)[C@H]1CC[C@H](OCC(=O)O)CC1` [Example 127, 2-(((1R,4r)-4-(2-(((R)-2-(5-Fluoropyridin-3-yl)-2-hydroxyethyl)amino)-propan-2-yl)cyclohexyl)oxy)acetic acid], the Emax at 10 µM [1] is reported as under 25% and the “Biological example 1: glucose uptake, activity compared to that of isoproterenol” value [2] is reported as “+ +”.
